Assay results published in publication PMC11527646, “Pharmacological blockade of the mast cell MRGPRX2 receptor supports investigation of its relevance in skin disorders” (Frontiers in Immunology, 2024).
Where two headings read alike, the source gives them in different places.

How the values were obtained:
NK1 receptor (TACR1) = NK1 receptor (TACR1) (Homo sapiens, UniProt P25103); assay: GPCR selectivity cellular assay; assay type: cell-based; conditions: Antagonism; read-out: Antagonist Activity (IC50)
NK1 receptor (TACR1), sequence (P25103 whole entry): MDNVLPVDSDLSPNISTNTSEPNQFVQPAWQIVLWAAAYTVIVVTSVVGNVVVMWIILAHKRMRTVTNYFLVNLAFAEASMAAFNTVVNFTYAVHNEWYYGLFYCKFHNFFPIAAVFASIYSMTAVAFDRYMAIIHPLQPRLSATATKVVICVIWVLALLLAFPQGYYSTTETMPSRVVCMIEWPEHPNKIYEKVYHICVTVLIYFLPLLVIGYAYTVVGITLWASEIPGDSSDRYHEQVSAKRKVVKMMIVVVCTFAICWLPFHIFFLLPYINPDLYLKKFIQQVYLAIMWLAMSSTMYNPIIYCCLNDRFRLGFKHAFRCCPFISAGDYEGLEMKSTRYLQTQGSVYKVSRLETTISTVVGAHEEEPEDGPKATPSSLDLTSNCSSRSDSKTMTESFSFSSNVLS
Procedure: (§1) tagonists, with little activity detected on other GPCRs. Antagonist and/or agonist activities of the two compounds were determined in cellular assays for 20 human G-protein coupled receptors (GPCR) beside MRGPRX2. Recombinant over-expression systems in mammalian cells were used for all assays listed in this table. […]
(§2) reported as ‘>’ the highest compound concentration allowed in that assay.
(§3) GPCR Target Name Gene symbol Mode of Activity Compound-A Compound-B […]
(§4) Agonist Activity (EC50 ) or Antagonist Activity (IC50 ), nM […]

[1] = molecular target: T1, a1B-Adrenoreceptor (ADRA1B) (Homo sapiens, UniProt P35368); assay: GPCR selectivity cellular assay; assay type: cell-based; conditions: Antagonism; read-out: Antagonist Activity (IC50)
T1 construct: expressed in transfected cells
T1 sequence (P35368 whole entry): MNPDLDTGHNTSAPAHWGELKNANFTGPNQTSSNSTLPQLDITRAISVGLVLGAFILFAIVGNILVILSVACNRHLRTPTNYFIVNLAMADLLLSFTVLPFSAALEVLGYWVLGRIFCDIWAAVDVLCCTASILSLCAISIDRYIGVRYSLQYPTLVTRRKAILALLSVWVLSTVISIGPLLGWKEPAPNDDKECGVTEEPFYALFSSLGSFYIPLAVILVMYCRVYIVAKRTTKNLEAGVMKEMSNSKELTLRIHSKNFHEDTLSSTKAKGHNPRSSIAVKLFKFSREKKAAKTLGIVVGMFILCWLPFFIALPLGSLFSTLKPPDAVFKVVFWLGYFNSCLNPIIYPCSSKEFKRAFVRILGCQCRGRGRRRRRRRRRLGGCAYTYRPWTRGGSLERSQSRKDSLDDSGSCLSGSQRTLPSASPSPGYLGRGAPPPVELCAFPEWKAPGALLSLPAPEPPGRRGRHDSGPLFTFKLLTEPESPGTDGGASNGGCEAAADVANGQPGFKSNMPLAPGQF
Procedure: as §1, §2, §3, §4

M2 receptor (CHRM2) = molecular target: T2, M2 receptor (CHRM2) (Homo sapiens, UniProt P08172); assay: GPCR selectivity cellular assay; assay type: cell-based; conditions: for EC50: Agonism, read-out: Agonist Activity (EC50); for IC50: Antagonism, read-out: Antagonist Activity (IC50)
T2 construct: expressed in transfected cells
T2 sequence (P08172 1-466): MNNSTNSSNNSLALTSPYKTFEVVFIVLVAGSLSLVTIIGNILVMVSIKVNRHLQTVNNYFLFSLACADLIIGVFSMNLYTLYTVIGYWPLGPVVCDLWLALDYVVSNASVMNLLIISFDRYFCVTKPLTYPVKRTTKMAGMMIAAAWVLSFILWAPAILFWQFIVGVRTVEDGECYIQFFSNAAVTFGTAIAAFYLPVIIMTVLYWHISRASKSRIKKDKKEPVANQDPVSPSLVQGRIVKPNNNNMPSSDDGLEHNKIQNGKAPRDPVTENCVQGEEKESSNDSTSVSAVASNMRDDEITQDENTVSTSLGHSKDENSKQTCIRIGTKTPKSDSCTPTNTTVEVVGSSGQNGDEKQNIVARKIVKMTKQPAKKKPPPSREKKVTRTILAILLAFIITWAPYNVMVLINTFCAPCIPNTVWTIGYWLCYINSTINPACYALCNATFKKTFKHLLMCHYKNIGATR
Procedure: as §1, §2, §3, §4

5-HT2B receptor (HTR2B) = 5-HT2B receptor (HTR2B) (Homo sapiens, UniProt P41595); assay: GPCR selectivity cellular assay; assay type: cell-based; conditions: Agonism; read-out: Agonist Activity (EC50)
5-HT2B receptor (HTR2B), sequence (P41595 whole entry): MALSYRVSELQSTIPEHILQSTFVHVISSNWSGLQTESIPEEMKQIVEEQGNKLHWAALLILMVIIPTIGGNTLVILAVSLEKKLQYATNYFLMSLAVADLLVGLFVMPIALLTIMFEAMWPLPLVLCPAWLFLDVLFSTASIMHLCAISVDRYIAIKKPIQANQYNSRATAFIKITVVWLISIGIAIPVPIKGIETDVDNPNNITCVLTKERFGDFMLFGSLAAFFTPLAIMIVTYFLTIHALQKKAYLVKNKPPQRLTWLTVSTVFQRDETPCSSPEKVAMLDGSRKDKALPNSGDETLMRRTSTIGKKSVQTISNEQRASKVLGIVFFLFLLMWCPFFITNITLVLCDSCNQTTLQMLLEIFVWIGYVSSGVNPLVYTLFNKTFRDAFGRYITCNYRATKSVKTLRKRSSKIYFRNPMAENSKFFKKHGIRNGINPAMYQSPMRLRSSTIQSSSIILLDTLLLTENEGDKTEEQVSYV
Procedure: as §1, §2, §3, §4

5-HT2A receptor (HTR2A) = 5-HT2A receptor (HTR2A) (Homo sapiens, UniProt P28223); assay: GPCR selectivity cellular assay; assay type: cell-based
5-HT2A receptor (HTR2A), sequence (P28223 whole entry): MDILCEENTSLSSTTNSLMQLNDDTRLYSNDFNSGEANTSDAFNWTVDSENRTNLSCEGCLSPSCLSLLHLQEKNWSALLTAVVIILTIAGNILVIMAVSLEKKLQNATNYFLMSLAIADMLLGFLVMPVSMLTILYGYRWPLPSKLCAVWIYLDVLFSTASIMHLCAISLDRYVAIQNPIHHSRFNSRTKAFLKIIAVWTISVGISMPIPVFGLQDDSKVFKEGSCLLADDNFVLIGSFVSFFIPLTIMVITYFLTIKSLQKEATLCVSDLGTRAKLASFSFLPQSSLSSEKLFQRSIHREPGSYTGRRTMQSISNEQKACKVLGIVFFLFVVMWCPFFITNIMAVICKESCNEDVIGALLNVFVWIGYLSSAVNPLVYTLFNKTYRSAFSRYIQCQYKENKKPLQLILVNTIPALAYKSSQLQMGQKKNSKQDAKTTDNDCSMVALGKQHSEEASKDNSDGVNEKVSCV
Procedure: as §1, §2, §3, §4

k-Receptor (OPRK1) = k-Receptor (OPRK1) (Homo sapiens, UniProt P41145); assay: GPCR selectivity cellular assay; assay type: cell-based
k-Receptor (OPRK1), sequence (P41145 whole entry): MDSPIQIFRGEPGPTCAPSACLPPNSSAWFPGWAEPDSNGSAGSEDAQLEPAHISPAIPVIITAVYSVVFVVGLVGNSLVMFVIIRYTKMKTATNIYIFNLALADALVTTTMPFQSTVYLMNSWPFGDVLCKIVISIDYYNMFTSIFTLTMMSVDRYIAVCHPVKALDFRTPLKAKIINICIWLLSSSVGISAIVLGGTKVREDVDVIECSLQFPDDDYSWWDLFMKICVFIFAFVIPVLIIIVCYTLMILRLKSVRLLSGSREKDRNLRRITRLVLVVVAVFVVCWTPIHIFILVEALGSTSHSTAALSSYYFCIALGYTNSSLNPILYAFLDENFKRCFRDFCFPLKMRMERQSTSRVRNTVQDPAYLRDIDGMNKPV
Procedure: as §1, §2, §3, §4

5-HT2C receptor (HTR2C) = molecular target: T3, 5-HT2C receptor (HTR2C) (Homo sapiens, UniProt P28335); assay: GPCR selectivity cellular assay; assay type: cell-based; conditions: for EC50: Agonism, read-out: Agonist Activity (EC50); for IC50: Antagonism, read-out: Antagonist Activity (IC50)
T3 sequence (P28335 33-458): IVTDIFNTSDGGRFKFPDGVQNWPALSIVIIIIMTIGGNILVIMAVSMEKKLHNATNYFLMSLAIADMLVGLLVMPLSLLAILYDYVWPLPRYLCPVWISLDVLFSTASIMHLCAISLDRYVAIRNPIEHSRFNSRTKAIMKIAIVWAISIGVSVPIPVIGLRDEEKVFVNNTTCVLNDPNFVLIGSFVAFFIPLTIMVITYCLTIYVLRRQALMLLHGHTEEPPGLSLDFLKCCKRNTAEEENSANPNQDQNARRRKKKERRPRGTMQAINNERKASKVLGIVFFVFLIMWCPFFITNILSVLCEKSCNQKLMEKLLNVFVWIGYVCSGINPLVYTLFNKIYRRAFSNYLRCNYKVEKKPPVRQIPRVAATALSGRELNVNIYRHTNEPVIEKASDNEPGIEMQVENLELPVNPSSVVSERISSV
Procedure: as §1, §2, §3, §4

V1A receptor (AVPR1A) = molecular target: T4, V1A receptor (AVPR1A) (Homo sapiens, UniProt P37288); assay: GPCR selectivity cellular assay; assay type: cell-based; conditions: Antagonism; read-out: Antagonist Activity (IC50)
T4 construct: expressed in transfected cells
T4 sequence (P37288 whole entry): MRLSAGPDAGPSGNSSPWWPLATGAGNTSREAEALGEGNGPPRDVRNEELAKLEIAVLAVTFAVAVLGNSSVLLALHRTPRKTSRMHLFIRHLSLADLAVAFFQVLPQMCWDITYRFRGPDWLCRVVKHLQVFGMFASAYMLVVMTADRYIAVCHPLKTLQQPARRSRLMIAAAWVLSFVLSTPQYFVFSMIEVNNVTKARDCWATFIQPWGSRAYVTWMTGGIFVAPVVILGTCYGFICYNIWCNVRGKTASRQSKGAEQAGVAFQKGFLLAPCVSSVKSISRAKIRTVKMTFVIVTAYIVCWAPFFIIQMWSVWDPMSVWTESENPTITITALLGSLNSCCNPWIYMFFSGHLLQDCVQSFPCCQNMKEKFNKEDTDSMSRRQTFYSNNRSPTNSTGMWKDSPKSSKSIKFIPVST
Procedure: as §1, §2, §3, §4

M1 receptor (CHRM1) = molecular target: T5, M1 receptor (CHRM1) (Homo sapiens, UniProt P11229); assay: GPCR selectivity cellular assay; assay type: cell-based; conditions: for EC50: Agonism, read-out: Agonist Activity (EC50); for IC50: Antagonism, read-out: Antagonist Activity (IC50)
T5 construct: expressed in transfected cells
T5 sequence (P11229 1-460): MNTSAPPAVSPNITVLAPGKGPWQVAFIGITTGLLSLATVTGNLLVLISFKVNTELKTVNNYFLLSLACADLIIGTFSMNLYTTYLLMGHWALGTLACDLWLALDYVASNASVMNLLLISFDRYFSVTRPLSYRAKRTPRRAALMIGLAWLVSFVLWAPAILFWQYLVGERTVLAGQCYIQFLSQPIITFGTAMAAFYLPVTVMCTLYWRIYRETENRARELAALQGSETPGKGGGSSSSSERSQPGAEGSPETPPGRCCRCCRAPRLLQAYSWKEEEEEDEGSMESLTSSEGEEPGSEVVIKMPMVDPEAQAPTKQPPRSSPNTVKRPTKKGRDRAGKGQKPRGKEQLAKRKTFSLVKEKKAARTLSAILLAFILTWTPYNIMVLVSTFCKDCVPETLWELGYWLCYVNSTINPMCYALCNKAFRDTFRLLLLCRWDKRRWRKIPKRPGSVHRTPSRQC
Procedure: as §1, §2, §3, §4

5-HT1B receptor (HTR1B) = molecular target: T6, 5-HT1B receptor (HTR1B) (Homo sapiens, UniProt P28222); assay: GPCR selectivity cellular assay; assay type: cell-based; conditions: Agonism; read-out: Agonist Activity (EC50)
T6 construct: expressed in transfected cells
T6 sequence (P28222 whole entry): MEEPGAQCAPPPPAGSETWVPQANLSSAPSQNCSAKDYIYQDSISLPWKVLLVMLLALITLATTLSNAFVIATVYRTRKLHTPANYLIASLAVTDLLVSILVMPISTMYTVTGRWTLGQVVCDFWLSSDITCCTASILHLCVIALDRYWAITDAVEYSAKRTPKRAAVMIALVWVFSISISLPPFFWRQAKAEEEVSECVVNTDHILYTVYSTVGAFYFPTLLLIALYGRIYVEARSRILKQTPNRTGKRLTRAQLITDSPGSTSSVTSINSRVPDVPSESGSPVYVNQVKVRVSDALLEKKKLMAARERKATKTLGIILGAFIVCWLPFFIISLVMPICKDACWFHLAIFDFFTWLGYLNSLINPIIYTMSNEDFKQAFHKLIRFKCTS
Procedure: as §1, §2, §3, §4

CB1 receptor (CNR1) = molecular target: T7, CB1 receptor (CNR1) (Homo sapiens, UniProt P21554); assay: GPCR selectivity cellular assay; assay type: cell-based
T7 construct: expressed in transfected cells
T7 sequence (P21554 whole entry): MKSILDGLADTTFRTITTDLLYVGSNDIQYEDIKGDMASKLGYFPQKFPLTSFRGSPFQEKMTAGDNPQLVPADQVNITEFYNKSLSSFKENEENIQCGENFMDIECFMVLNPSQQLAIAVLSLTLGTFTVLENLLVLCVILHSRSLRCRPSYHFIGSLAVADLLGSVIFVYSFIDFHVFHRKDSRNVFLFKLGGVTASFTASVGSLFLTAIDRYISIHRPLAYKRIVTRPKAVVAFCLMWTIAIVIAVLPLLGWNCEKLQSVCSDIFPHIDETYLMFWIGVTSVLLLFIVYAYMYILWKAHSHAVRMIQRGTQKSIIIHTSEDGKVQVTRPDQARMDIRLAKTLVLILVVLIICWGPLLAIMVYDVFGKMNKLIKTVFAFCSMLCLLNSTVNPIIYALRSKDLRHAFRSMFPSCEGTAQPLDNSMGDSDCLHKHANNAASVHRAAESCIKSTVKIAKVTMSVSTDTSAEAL
Procedure: as §1, §2, §3, §4

D1 receptor (DRD1) = molecular target: T8, D1 receptor (DRD1) (Homo sapiens, UniProt P21728); assay: GPCR selectivity cellular assay; assay type: cell-based; conditions: Antagonism; read-out: Antagonist Activity (IC50)
T8 construct: expressed in transfected cells
T8 sequence (P21728 whole entry): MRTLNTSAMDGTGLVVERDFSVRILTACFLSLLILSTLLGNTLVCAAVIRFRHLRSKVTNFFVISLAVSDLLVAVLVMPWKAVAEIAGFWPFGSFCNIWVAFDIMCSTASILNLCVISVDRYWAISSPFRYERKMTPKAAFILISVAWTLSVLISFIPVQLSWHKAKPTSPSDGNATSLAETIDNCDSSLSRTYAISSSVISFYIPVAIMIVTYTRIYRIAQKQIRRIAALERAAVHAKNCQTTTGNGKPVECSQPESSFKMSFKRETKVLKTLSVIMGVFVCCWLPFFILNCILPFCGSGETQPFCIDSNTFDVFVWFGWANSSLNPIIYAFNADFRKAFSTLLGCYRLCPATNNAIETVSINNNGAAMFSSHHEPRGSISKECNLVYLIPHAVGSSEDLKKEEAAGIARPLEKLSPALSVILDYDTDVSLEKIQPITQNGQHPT
Procedure: as §1, §2, §3, §4

H1 receptor (HRH1) = molecular target: T9, H1 receptor (HRH1) (Homo sapiens, UniProt P35367); assay: GPCR selectivity cellular assay; assay type: cell-based; conditions: Antagonism; read-out: Antagonist Activity (IC50)
T9 construct: expressed in transfected cells
T9 sequence (P35367 whole entry): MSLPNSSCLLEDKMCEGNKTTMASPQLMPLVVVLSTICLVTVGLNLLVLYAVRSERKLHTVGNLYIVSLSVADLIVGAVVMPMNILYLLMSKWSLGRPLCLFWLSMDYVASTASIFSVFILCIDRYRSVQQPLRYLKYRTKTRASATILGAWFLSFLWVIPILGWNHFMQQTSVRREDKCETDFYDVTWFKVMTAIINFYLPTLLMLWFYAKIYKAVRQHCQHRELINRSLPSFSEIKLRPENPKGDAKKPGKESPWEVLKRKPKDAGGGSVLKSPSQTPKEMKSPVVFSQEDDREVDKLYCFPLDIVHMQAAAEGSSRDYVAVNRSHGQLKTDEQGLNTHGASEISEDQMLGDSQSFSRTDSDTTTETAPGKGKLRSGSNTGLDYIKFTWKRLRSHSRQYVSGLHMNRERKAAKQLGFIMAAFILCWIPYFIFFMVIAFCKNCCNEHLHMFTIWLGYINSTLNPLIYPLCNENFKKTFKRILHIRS
Procedure: as §1, §2, §3, §4

C3aR1 = molecular target: T10, C3aR1 (Homo sapiens, UniProt Q16581); conditions: for Effect on C3a-stimulated LAD2 degranulation: increasing concentrations of antagonist
T10 sequence (Q16581 1-482): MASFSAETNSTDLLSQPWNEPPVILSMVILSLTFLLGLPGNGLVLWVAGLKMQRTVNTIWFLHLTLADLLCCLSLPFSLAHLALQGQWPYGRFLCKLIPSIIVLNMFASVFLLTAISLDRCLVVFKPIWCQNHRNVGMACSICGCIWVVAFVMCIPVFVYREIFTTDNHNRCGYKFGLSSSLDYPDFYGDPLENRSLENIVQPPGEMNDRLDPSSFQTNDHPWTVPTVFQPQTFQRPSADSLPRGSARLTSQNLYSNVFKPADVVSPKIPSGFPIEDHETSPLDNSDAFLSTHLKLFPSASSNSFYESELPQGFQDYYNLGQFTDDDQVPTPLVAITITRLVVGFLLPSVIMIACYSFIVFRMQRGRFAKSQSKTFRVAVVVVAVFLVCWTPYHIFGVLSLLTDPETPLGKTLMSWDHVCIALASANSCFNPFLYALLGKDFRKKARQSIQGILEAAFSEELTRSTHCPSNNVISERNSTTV
Source text: Release of β-hexosaminidase from LAD2 cells was followed as a measurement of mast cell degranulation using a method described previously ([4]).
Potency data are presented as mean ± SEM.

[2] = Agonism, read-out: Agonist Activity (EC50)

Row | Structure (SMILES) | IC50 (NK1 receptor (TACR1)) | IC50 [1] | EC50 (M2 receptor (CHRM2)) | IC50 (M2 receptor (CHRM2)) | EC50 (5-HT2B receptor (HTR2B)) | EC50 (5-HT2C receptor (HTR2C)) | IC50 (5-HT2C receptor (HTR2C)) | IC50 (V1A receptor (AVPR1A)) | EC50 (M1 receptor (CHRM1)) | IC50 (M1 receptor (CHRM1)) | EC50 (5-HT1B receptor (HTR1B)) | IC50 (D1 receptor (DRD1)) | IC50 (H1 receptor (HRH1)) | IC50 (C3aR1) | Effect on C3a-stimulated LAD2 degranulation (C3aR1) | also measured
1 | C[C@@H](C(=O)Nc1cnc(Oc2ccc(F)cc2F)cn1)N1CCC(F)(F)[C@@H](c2cc[n+]([O-])cc2)C1 [Compound B] | > 25 µM | > 25 µM | > 50 µM | > 50 µM | > 100 µM | > 100 µM | > 50 µM | > 50 µM | > 50 µM | > 50 µM | > 50 µM | > 100 µM | > 25 µM | > 50 µM | lack of an effect | EC50 (5-HT2A receptor (HTR2A); [2]): > 100 µM; IC50 (5-HT2A receptor (HTR2A); Antagonism, read-out: Antagonist Activity (IC50)): > 100 µM; EC50 (k-Receptor (OPRK1); [2]): > 100 µM; EC50 (CB1 receptor (CNR1); [2]): > 25 µM
2 | CC1(C)C(C(=O)Nc2ccccn2)C1(C)C [Compound A] | > 25 µM | > 25 µM | > 50 µM | > 50 µM | 27.1 µM | > 100 µM | > 100 µM | > 50 µM | > 50 µM | > 50 µM | 11.9 µM | > 100 µM | > 25 µM | > 50 µM | lack of an effect | EC50 (5-HT2A receptor (HTR2A)): > 100 µM; IC50 (5-HT2A receptor (HTR2A)): 41.4 µM; EC50 (k-Receptor (OPRK1)): > 100 µM; EC50 (CB1 receptor (CNR1)): > 25 µM
